Measurements: patent US10111877B2, “Modulators of androgen synthesis” (Tangent Reprofiling Limited, priority 2012, dated 2018)

Tested on: BxPC-3 cells
Experiment: Resazurin-based cell viability assay, pancreatic cancer cell line
Settings: 72 hours, combination equimolar, 100% = no drug, 0% = Paclitaxel
Method: To determine whether Risperidone alone, or in combination with CLA could inhibit cell growth of cells taken from a pancreatic cancer cell line overexpressing HSD10, a resazurin-based cell viability assay was conducted on Bx-PC3 cells.
BxPC-3 cells are from a cell line derived from a human pancreatic adenocarcinoma and are known to overexpress HSD10. BxPC-3 cells were seeded at a density of 4,000 cells per well in a 384 well plate, and incubated at 37° C., 5% CO2 for 24 hours in standard growth media (RPMI nutrient media, 5% heat-inactivated Fetal Calf Serum, 2 mM L-Glutamine). The media was then removed by pipette and replaced with 50 μL BxPC-3 treatment media comprising 125 μM fatty acid-free BSA, 2 mM L-Glutamine and one of the following drug treatments: 0.1 μM, 2 μM, or 50 μM Risperidone; 0.1 μM, 2 μM, or 50 μM CLA; or 0.1 μM, 2 μM, or 50 μM of Risperidone and CLA (in equimolar amounts). After incubation in the drug treatment for 72 hours at 37° C., 5% CO2, viable cell number was determined using a resazurin-based cell viability assay (PRESTOBLUE®; Invitrogen, Carlsbad, Calif.). To each well, 7 μL of PRESTOBLUE® reagent was added and the plates incubated for 60 minutes at 37° C., 5% CO2. After incubation, the fluorescence intensity of each well was determined using a microplate reader by excitation and 570 nm and recording emission at 600 nm. The percentage of viable cell number was calculated by normalizing the experimental fluorescence intensity, where 100% is set to cells receiving no drug treatment (cells metabolizing at optimal rate), and 0% is set to readings from cells treated with Paclitaxel (cells not metabolizing at all due to their destruction by anti-cancer drug). A value under 50% could be considered a useful indication of potential efficacy.

## CCCCCC/C=C/C=C\CCCCCCCC(=O)O [CLA, 9Z, 11E conjugated Linoleic acid]
0.1 uM
  percentage of viable cell number: 103%
2 uM
  percentage of viable cell number: 71%
50 uM
  percentage of viable cell number: 119%
